Source: article PMC5635026, “Homo-PROTACs: bivalent small-molecule dimerizers of the VHL E3 ubiquitin ligase to induce self-degradation” (Nature Communications, 2017)

Key:
[1] = target: T1, pVHL30 (Homo sapiens, UniProt P40337); assay: Co-treatment / competition experiments on CM11-induced pVHL30 degradation in HeLa cells; format: cell-based; parameters: endogenous in cells; host or cells: HeLa; settings: CM11 1 µM 4 h
Procedure: ML4924 and MG132 co-treatment. Cells were transferred in six-well plates with 5 × 10^5 cells per well in 2 ml media in order to achieve 80% confluence the day after. At t = 0, MLN4924 was added into the desired wells at 3 μM final concentration and 0.1% v/v of DMSO. DMSO (0.1% v/v final conc.) was added to the remaining wells in order to match identical conc. of vehicle in all wells. At t = 3 h, MG 132 was added into the desired wells at 50 μM final conc. and 0.1% v/v of DMSO. DMSO (0.1% v/v final conc.) was added to the remaining wells in order to achieve the same conc. of vehicle in all the wells. […] DMSO (0.1% v/v final conc.) was added to the remaining wells to obtain the same conc. of vehicle in all the wells. The total final concentration of DMSO was therefore 0.3% v/v. Plates were incubated for 4 h at 37 °C and 5% CO2 before harvesting. […] Plates were incubated for the desired time at 37 °C and 5% CO2 before harvesting.
Immunoblotting. Cells were lysed in lysis buffer (20 mM Tris pH 8, 150 mM NaCl, 1% Triton × 100) and a protease inhibitor cocktail (Roche) per 10 ml buffer. For protein extracts, the dishes were placed on ice. The media was aspirated and the tissue layer washed twice with ice-cold phosphate buffer saline (PBS). Lysis buffer (120 μl) was added and the cells detached from the surface with a cell scraper. After removal of the insoluble fraction by centrifugation, the protein concentration of the supernatant was determined by Pierce™ Coomassie (Bradford) Protein Assay Kit. Protein extracts were fractionated by SDS-PAGE on 4–12% Tris-Acetate NuPage® Novex® (Life Technologies) polyacrylamide gels and transferred to a nitrocellulose membrane using wet transfer. The membrane was then blocked with 5 % w/v Bovine serum albumin (BSA) in Tris-buffered saline (TBS) with 0.1% w/v Tween-20. For detecting proteins the following primary antibodies in the given concentrations were used: anti-β-Actin (Cell Signaling Technology, 4970S, 13E5) 1:2000, anti-VHL (Cell Signaling Technology, #68547) 1:1000, anti-Hif-1α (BD Biosciences, 610959, clone 54) 1:1,000, anti-hydroxy-HIF-1α (Hyp564) (Cell Signaling Techonology; #3434) 1:1,000, anti-PHD2 (Bethyl Laboratories; A300-322A) 1:1,000, anti-PHD3 (Bethyl Laboratories; A300-327A) 1:1000, anti-CRBN (Proteintech; 11435-1-AP) 1:1,000. Following incubation with a horseradish peroxidase-conjugated secondary antibody (Cell Signaling Technology), the signal was developed using enhanced chemiluminescence (ECL) Western Blotting Detection Kit (Amersham) on Amersham Hyperfilm ECL film (Amersham). Band quantification was performed using ImageJ software and reported as relative amount as ratio of the each protein band relative to the lane’s loading control. The values obtained were then normalized to 0.1% DMSO vehicle control. […]
Target sequence in this assay (P40337 whole entry): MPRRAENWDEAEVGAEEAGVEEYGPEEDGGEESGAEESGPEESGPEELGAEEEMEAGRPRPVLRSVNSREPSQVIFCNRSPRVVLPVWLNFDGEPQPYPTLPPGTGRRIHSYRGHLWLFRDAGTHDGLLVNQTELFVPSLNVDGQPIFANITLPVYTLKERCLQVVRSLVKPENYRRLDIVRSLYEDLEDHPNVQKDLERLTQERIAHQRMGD

[2] = target: T1, pVHL30; assay: Isothermal titration calorimetry (ITC) against VCB complex with long VHL isoform (V30CB); format: binding; parameters: N-terminally His6-tagged VHL (1–213), ElonginC (17–112) and ElonginB (1–104) were co-expressed; His6 (N, cleaved yes); made in house; host or cells: Escherichia coli BL21(DE3)
Procedure: Protein expression and purification. Human proteins VHL (UniProt accession number: P40337), ElonginC (Q15369), and ElonginB (Q15370) were used for all protein expression. The short-isoform-containing VCB complex (V19CB) was expressed, purified and stored as described previously. For expression of the long-isoform-containing VCB complex (V30CB), N-terminally His6-tagged VHL (1–213), ElonginC (17–112) and ElonginB (1–104) were co-expressed in Escherichia coli BL21(DE3) at 20 °C for 18 h using 0.5 mM isopropyl β-D-1-thiogalactopyranoside (IPTG). E. coli cells were resuspended in binding buffer (50 mM HEPES, pH 8.0, 500 mM NaCl, 10 mM imidazole and 5 mM β-mercaptoethanol), lysed using a pressure cell homogenizer (Stansted Fluid Power), and lysate clarified by centrifugation. The supernatant was loaded onto a HisTrap FF affinity column (GE Healthcare) equilibrated with binding buffer, and bound protein was eluted using an imidazole gradient. The His6 tag was removed using thrombin protease (Sigma), and the untagged complex was dialyzed into binding buffer. V30CB was then loaded onto the HisTrap FF column a second time, allowing impurities to bind as the complex eluted without binding. The flow-through was dialyzed using a low-salt buffer (20 mM HEPES, pH 8.0, 25 mM NaCl and 1 mM DTT) and then loaded onto a Resource Q anion exchange column (GE Healthcare); bound protein was eluted across a linear NaCl gradient. V30CB was then additionally purified by size-exclusion chromatography using a Superdex-75 16/600 column (GE Healthcare) equilibrated with 20 mM HEPES, pH 7.5, 100 mM sodium chloride and 1 mM TCEP. All chromatography purification steps were performed using Äkta FPLC purification systems (GE Healthcare).
Isothermal titration calorimetry (ITC). Titrations were performed on an ITC200 micro-calorimeter (GE Healthcare). […] The final DMSO concentration was 0.15% v/v. VCB protein experiments were carried out in a buffer containing 20 mM Bis-tris propane, 150 mM NaCl, 1 mM TCEP, 0.15% v/v DMSO, pH 7.4. The titrations consisted of 19 injections of 2 µL compounds solution (150 µM, in the syringe) at a rate of 0.5 µl s^−1 at 120 s time intervals into the VCB protein solution (20 µM, in the cell). An initial injection of compound solution (0.4 µL) was made and discarded during data analysis. All experiments were performed at 25 °C, whilst stirring the syringe at 600 rpm. The data were fitted to a single binding site model to obtain the stoichiometry n, the dissociation constant K d and the enthalpy of binding ΔH using the Microcal LLC ITC200 Origin software provided by the manufacturer.
Target sequence in this assay (P40337 whole entry): as above
Target sequence in this assay (Q15369 17-112 partner limits assumed): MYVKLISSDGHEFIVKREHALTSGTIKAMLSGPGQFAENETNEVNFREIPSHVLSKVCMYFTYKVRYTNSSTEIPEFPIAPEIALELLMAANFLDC
Target sequence in this assay (Q15370 1-104 partner limits assumed): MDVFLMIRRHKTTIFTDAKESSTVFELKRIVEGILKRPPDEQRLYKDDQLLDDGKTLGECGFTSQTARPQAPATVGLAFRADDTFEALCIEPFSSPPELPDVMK

Cc1ncsc1-c1ccc(CNC(=O)[C@@H]2C[C@@H](O)CN2C(=O)[C@@H](NC(=O)COCCOCCOCCOCCOCCOCC(=O)N[C@H](C(=O)N2C[C@H](O)C[C@H]2C(=O)NCc2ccc(-c3scnc3C)cc2)C(C)(C)C)C(C)(C)C)cc1 [CM11, N ^1 ,N ^20-bis((S)-1-((2S,4R)-4-hydroxy-2-((4-(4-methylthiazol-5-yl)benzyl)carbamoyl)pyrrolidin-1-yl)-3,3-dimethyl-1-oxobutan-2-yl)-3,6,9,12,15,18-hexaoxaicosanediamide]
CM11 activity after pre-treatment with IOX4 ([1]; IOX4 50 µM): did not impact CM11 activity
CM11-induced degradation of pVHL30 after pre-treatment with MG132 ([1]; MG132 50 µM): completely abrogated
CM11-induced degradation after pre-treatment with MLN4924 ([1]; MLN4924 3 µM): prevented
CM11-induced pVHL degradation after pre-treatment with VH032 ([1]; VH032 150 µM for 30 min): blocked pVHL degradation
ΔG ([2]; 25 °C, pVHL30): –10.4 ± 0.1 kcal mol^−1
ΔH ([2]; 25 °C, pVHL30): –11.3 ± 0.1 kcal mol^−1
Kd ([2]; 25 °C, pVHL30 (V30CB)): 25 ± 3 nM
n ([2]; 25 °C, stoichiometry of binding, pVHL30 (V30CB)): 0.866 ± 0.003
α ([2]; avidity / cooperativity, pVHL30): 7.5
